# Reference: US4769368A, “2,3,4,8,9,9A-Hexahydro-4-aryl-1H-indeno(1,7-CD)azepines” (SmithKline Beckman Corporation, priority 1986, dated 1988)
# Where a name gives a salt, the structure may show the parent alone.
# Tests used:
# [1] = system: D2-dopamine sites (bovine pituitary); test: Displacement of [3H] spiroperidol, bovine pituitary (D2) binding; details: at 10^-5 M, 10 µM
# Source text: (§1) As an example of the D1 -dopamine specificity of the compounds of this invention, a species of formula I, 6,7-dihydroxy-2,3,4,8,9-9a-hexahydro-4-phenyl-1H-indeno[1,7-cd]azepine hydrobromide, was submitted to standard binding tests for D1 and D2 -dopamine sites, see K. Flaim, loc. cit. for testing protocols.
# [^3 H] spiroperidol bovine
# [2] = target: T1, D1-dopamine sites (rat caudate) (Rattus norvegicus, UniProt P18901); test: Displacement of [3H] fenoldopam, rat caudate (D1) binding; details: in words
# T1 construct: rat caudate; from tissue; host or cells: rat caudate
# Source text: as §1
# [^3 H] fenoldopam rat caudate
# [3] = in words; peripheral dopaminergic agent; cited from earlier work
# [4] = system: dopamine D1 and D2 receptor; details: in words; U.S. Pat. No. 4,197,297; cited from earlier work
# T1 sequence (P18901 whole entry): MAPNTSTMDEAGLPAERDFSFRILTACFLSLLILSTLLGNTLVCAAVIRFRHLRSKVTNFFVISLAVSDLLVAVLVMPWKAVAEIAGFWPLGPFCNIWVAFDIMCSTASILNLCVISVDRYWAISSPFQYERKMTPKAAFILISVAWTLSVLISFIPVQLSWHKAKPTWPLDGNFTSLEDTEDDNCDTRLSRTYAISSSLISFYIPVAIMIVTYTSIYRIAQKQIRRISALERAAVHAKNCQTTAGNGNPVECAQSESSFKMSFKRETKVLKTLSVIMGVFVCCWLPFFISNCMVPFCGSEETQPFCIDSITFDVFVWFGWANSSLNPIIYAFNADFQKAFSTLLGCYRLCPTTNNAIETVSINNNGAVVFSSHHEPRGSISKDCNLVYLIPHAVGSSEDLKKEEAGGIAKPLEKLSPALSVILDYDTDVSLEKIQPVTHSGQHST
compound,measurement,setting,value
"Br.Oc1cc2c3c(c1O)CC[C@@H]3CNC[C@@H]2c1ccccc1 (stereo in doubt) [trans, trans-6,7-dihydroxy-2,3,4,8,9,9a-hexahydro-4-phenyl-1H-indeno[1,7-cd]azepine hydrobromide]",Displacement of [3H] spiroperidol bovine pituitary (D2),[1],0%
"Oc1cc2c3c(c1O)CC[C@H]3CNC[C@H]2c1ccccc1 (stereo in doubt) [cis, cis-6,7-dihydroxy-2,3,4,8,9,9a-hexahydro-4-phenyl-1H-indeno[1-7-cd]azepinehydrobromide]",Displacement of [3H] spiroperidol bovine pituitary (D2),[1],14%
same,potency and selectivity for D1 dopamine sites,[2],very potent and selective
Oc1ccc(C2CNCCc3c2cc(O)c(O)c3Cl)cc1 (centres unmarked) [fenoldopam],described activity,[3],"renal dilating, anti-hypertensive, anti-shock and anti-congestive heart failure activity"
same,agonist activity,[4],D1 and some D2 agonist activity
